Active and inactive are the calls of the source.
Experiments:
[1] = HEK293 Cytotoxicity Assay Measured in Cell-Based System Using Plate Reader - 7071-01_Inhibitor_Dose_CherryPick_Activity_Set2.; assay type: functional
HeLa = experiment: viability loss in HeLa cells – cell-based, ATP luminescence, cherry-pick samples, cytotoxicity control, dose response (AID 687004); assay type: functional; details: Homo sapiens
HEK293 [2] = experiment: viability loss in HEK293T cells – cell-based, ATP luminescence, cherry-pick samples, cytotoxicity control, dose response (AID 687005); assay type: functional; details: Homo sapiens;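 further: cells exposed to compound for 48 hours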
Cryptococcus neoformans = experiment: PubChem AID 686997; assay type: functional, organism-based
[3] = mouse embryonic fibroblast toxicity – cell-based, plate reader, dry powder, set 2, cytotoxicity control, dose response (AID 652280); assay type: functional; details: NIH3T3
[4] = T. cruzi growth inhibition in host cells, dose response, cell-based, plate reader, dry powder, set 2 (AID 652275); assay type: functional
[5] = biological target: Potassium channel subfamily K member 9 (Homo sapiens, UniProt Q9NPC2); experiment: KCNK9 flux blockade, concentration-response – cell-based, FluxOR thallium flux, selectivity assay for TASK1 inhibitor project, SAR follow-up (AID 652211); assay type: functional;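 further: potency is for inhibitors of the channel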
Sequence of Potassium channel subfamily K member 9 (Q9NPC2 whole entry): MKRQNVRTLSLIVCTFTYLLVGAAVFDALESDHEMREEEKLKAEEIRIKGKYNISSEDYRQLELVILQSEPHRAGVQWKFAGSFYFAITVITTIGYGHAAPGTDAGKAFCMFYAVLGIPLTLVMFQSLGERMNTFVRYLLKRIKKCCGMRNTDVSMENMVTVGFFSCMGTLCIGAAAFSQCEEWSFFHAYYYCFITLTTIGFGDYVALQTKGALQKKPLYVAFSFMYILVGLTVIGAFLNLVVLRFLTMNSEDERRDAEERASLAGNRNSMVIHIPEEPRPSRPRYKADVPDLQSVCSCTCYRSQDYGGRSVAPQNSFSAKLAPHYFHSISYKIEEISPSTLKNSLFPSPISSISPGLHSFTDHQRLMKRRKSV

[6] = general mammalian cell viability loss – activator set, cherry-pick, cytotoxicity control for miR-122 modulator project, dose response (AID 720690); assay type: functional, cell-based;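 further: HEK293T human cells scored for general mammalian cytotoxicity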
NS3 = NS3 (Hepatitis C virus, UniProt A3EZJ3); experiment: NS3h DNA-binding inhibition IC50 – biochemical, fluorescence polarization, ChemBridge library, dose response (AID 743264)
Sequence of NS3 (A3EZJ3 whole entry): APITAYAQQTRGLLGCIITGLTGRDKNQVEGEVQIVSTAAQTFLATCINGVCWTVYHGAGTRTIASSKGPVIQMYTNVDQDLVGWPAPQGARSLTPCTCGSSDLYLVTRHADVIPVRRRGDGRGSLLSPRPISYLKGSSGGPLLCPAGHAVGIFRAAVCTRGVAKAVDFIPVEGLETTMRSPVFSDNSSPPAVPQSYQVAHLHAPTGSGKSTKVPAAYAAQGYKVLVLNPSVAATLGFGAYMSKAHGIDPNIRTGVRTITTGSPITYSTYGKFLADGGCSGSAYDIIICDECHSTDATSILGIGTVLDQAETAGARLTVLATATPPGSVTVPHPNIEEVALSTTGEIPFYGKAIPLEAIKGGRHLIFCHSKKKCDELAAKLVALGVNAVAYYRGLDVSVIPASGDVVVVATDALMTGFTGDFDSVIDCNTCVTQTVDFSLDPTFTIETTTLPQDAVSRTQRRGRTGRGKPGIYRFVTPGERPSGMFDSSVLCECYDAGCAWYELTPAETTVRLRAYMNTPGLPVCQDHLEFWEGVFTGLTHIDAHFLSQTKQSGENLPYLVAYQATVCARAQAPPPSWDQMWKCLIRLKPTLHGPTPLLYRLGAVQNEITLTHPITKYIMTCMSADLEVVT

[7] = Late stage assay provider results from the probe development effort to identify inhibitors of the Plasmodium falciparum M18 Aspartyl Aminopeptidase (M18AAP): radiolabel-based cell-based dose response assay to identify compounds that inhibit P. falciparum growth in RBCs, Set 2..; assay type: functional
[8] = A Cell-Based Confirmatory Screen for Compounds that Inhibit VEEV, TC-83 (7).; assay type: functional
[9] = A Cell-Based Confirmatory Screen for Compounds that Inhibit VEEV, TC-83 (8).; assay type: functional
[10] = biological target: T1, High affinity choline transporter 1 (Homo sapiens, UniProt Q9GZV3); experiment: inhibition of SLC5A7-mediated choline transport – cell-based, HEK-293 hCHT, [3H]-choline uptake, dose response (AID 652177); assay type: functional
T1 sequence (Q9GZV3 whole entry): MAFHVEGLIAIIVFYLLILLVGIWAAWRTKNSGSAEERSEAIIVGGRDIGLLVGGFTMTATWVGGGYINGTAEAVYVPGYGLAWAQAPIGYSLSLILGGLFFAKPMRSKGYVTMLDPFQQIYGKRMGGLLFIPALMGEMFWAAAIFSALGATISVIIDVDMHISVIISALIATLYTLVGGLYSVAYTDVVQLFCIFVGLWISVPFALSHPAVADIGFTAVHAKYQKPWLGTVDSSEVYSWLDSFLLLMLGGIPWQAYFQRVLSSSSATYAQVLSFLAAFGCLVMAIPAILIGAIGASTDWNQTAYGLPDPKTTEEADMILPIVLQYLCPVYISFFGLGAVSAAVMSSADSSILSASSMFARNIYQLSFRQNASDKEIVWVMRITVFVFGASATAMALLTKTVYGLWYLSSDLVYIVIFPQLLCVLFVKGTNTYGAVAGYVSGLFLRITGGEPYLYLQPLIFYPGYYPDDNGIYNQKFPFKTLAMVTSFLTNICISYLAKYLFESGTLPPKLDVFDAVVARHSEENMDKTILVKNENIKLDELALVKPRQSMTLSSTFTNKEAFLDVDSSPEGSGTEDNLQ

Albumin = Albumin (Bos taurus, UniProt P02769); experiment: Counterscreen for inhibitors of T-cell receptor (TCR)-CD3 interaction: Fluorescence-based biochemical high throughput dose response assay to identify inhibitors of T-cell receptor (TCR)-CD3 interaction using a TAMRA-labeled BSA probe.; assay type: functional
Sequence of Albumin (P02769 whole entry): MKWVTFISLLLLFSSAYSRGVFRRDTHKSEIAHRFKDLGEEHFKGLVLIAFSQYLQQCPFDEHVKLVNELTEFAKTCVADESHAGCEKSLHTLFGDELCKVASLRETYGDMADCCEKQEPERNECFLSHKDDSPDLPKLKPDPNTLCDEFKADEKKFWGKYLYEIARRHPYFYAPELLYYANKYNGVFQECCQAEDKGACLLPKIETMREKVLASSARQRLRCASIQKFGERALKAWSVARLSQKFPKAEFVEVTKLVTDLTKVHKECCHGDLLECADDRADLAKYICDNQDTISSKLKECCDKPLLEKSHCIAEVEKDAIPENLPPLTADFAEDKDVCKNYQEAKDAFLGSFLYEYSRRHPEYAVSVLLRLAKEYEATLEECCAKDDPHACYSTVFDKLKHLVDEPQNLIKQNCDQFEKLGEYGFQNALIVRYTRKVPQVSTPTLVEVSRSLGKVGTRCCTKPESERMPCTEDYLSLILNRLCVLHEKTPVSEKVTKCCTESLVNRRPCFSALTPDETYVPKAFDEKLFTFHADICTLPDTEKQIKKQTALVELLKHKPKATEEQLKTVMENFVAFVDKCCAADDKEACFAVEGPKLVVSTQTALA

HEK293 [11] = experiment: cells; assay type: functional, cell-based; details: Homo sapiens
HEK293 [12] = experiment: cells; assay type: functional, cell-based; details: Homo sapiens; remark: listed apart in the source
HEK293 [13] = experiment: cells; assay type: functional, cell-based; details: Homo sapiens; remark: listed apart in the source
HEK293 [14] = experiment: NOD2 signaling inhibitors in MDP-stimulated cells, cell-based, uHTS, luminescence (AID 2001); assay type: functional; details: Homo sapiens
HEK293 [15] = experiment: inhibition of NOD1-driven NF-kB reporter – cell-based, luminescence, uHTS, primary screen (AID 1578); assay type: functional; details: Homo sapiens
[16] = biological target: Nucleotide-binding oligomerization domain-containing protein 2 (Homo sapiens, UniProt Q9HC29); experiment: inhibition of NOD2-driven NF-kB reporter – cell-based, luminescence, uHTS, HEK293 (AID 1566); assay type: functional
Sequence of Nucleotide-binding oligomerization domain-containing protein 2 (Q9HC29 whole entry, the tested form may be a part): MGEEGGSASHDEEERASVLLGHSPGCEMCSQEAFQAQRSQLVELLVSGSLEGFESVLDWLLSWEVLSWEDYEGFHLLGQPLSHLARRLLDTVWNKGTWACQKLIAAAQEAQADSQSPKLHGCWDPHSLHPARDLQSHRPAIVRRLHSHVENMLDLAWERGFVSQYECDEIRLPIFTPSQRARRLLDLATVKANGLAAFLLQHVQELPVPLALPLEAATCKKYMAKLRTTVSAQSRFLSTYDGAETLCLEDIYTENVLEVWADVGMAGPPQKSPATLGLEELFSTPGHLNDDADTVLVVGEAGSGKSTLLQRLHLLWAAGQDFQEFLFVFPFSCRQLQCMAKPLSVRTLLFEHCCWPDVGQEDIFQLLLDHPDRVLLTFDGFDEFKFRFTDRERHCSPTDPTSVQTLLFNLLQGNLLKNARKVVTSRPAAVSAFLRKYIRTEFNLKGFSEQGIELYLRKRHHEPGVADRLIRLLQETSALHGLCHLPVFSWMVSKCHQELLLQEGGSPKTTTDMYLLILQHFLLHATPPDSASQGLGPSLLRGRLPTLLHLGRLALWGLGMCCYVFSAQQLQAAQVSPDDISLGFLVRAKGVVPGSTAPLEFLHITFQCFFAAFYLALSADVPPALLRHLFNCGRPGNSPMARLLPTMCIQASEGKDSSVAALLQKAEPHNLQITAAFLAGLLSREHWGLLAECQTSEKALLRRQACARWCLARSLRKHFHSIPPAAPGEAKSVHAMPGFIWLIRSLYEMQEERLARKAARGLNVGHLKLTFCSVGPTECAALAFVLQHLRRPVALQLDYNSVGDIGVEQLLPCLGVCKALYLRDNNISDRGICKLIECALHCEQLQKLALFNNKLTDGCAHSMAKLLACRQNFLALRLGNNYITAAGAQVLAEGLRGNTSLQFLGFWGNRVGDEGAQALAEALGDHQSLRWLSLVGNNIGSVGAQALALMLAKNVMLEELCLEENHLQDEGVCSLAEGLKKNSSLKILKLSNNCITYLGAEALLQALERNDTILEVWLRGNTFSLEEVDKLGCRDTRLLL

COC(=O)C1=C(C)N(Cc2ccc(Cl)cc2)C(=S)NC1c1cccc(Cl)c1 (stereo not given)
AC50 [1]: 23.4 µM (active) | AC50 (HeLa): > 47 µM (inactive) | AC50 (HEK293 [2]): 23.4 µM (active) | AC50 (Cryptococcus neoformans): > 70 µM (inactive)

Cc1cccc(-c2ccc([C@H]3[C@H](CO)N4CCCCN(Cc5cccnc5)C[C@@H]34)cc2)c1
AC50 [3]: 17.9 µM (active) | AC50 [4]: 0.259 µM (active)

O=C(Nc1cccc(NC(=O)C2CCCCC2)c1)c1ccccc1
IC50 [5]: 8 µM (active)

COc1cccc(S(=O)(=O)N(C)C[C@@H]2Oc3cc(C4=CCCCC4)ccc3S(=O)(=O)N([C@H](C)CO)C[C@@H]2C)c1
AC50 [6]: 25.1 µM (active)

O=C1NC(=S)N(c2ccccc2)C(=O)/C1=C/c1ccc(-c2ccc(C(=O)O)c(Cl)c2)o1
IC50 (NS3): 96.9 µM (active)

Cc1c(OCc2ccccc2)c(=O)ccn1CCNc1c2ccccc2nc2ccccc12
IC50 [7]: 4 µM (active)

O=c1c2cc([N+](=O)[O-])ccc2nc(CN2CCCNCC2)n1-c1ccccc1
IC50 [8]: 2.48 µM (inconclusive) | IC50 [9]: 0.94 µM (active)

COc1ccc(C(=O)NCc2cc(C(C)C)no2)cc1OCCN1CCOCC1
IC50 [10]: 6.12 µM (active)

O=C(CNC(=O)c1cccc(Br)c1)N/N=C/c1cc(Br)cc(Br)c1O
IC50 (Albumin): > 94.1 µM (inactive) | IC50 (HEK293 [11]): 19.4 µM (active) | IC50 (HEK293 [12]): > 20 µM (inactive) | IC50 (HEK293 [13]): > 20 µM (inactive) | IC50 (HEK293 [14]): > 20 µM (inactive) | EC50 (HEK293 [15]): > 20 µM (inactive) | EC50 [16]: > 20 µM (inactive)
